Like-named read-outs stand apart in the source and are kept apart here.
System: HIV-1 Ba-L or HIV-1 IIIB infection of the HOS cell line (expressing hCXCR4/hCCR5/hCD4/pHIV-LTR-luciferase)
Assay: HOS HIV-1 Infectivity Assay
Format: cell-based
Conditions: luciferase readout, strain not given, read-out: Activity Level
Procedure: Compounds were profiled against two HIV-1 viruses, the M-tropic (CCR5 utilizing) Ba-L strain and the T-tropic (CXCR4 utilizing) IIIB strain. Ba-L was propagated in either peripheral blood lymphocytes or SupT1/CCR5+/CXCR4+ cells. IIIB was propagated in peripheral blood lymphocytes. Compounds were tested for their ability to block infection of the HOS cell line (expressing hCXCR4/hCCR5/hCD4/pHIV-LTR-luciferase) by either HIV-1 Ba-L or HIV-1 IIIB. Compound cytotoxicity was also examined in the absence of virus addition.
HOS cells (expressing hCXCR4/hCCR5/hCD4/pHIV-LTR-luciferase) were harvested and diluted in Dulbeccos modified Eagles media supplemented with 2% FCS to a concentration of 120,000 cells/ml. The cells were plated into 96-well plates (50 μl per well) and the plates were placed in a tissue culture incubator (370° C.; 5% CO2/95% air) for a period of 24 h.
Subsequently, 50 μl of the desired drug solution (2 times the final concentration) was added to each well and the plates were returned to the tissue culture incubator ([…]; 5% CO2/95% air) for 1 h. Following this incubation, 60 μl of diluted virus (4 times the final concentration) was added to 60 μl of 2× the final desired concentration of the compound and 100 μl this compound/virus mix was added to each well (approximately 2 million RLU per well of virus). The plates were returned to the tissue culture incubator ([…]; 5% CO2/95% air) and were incubated for a further 96 h.
Following this incubation the endpoint for the virally infected cultures was quantified following addition of Steady-Glo Luciferase assay system reagent (Promega, Madison, Wis.). Cell viability or non-infected cultures was measured using a CellTiter-Glo luminescent cell viability assay system (Promega, Madison, Wis.). All luminescent readouts are performed on a Topcount luminescence detector (Packard, Meridien, Conn.).

[1] = Human immunodeficiency virus 1, HOS cells

Compound | IC50 [1] [µM] | IC50 (HOS cells) [µM]
CN(C)C1CCN(Cc2c(CN(C)[C@H]3CCCc4cccnc43)nc3ccccn23)C1 (stereo partly drawn) [Example 13, (8S)-N-[(3-{[3-Dimethylamino-1-pyrrolidinyl]methyl}imidazo[1,2-a]pyridin-2-yl)methyl]-N-methyl-5,6,7,8-tetrahydro-8-quinolinamine] | < 0.1 | –
CN(CC#N)Cc1c(CN(C)[C@H]2CCCc3cccnc32)nc2ccccn12 [Example 25, (Methyl{[2-({methyl[(8S)-5,6,7,8-tetrahydro-8-quinolinyl]amino}methyl)imidazo[1,2-a]pyridin-3-yl]methyl}amino)acetonitrile] | < 0.1 | –
CN(C)Cc1c(CN(C)[C@H]2CCCc3cccnc32)nc2ccccn12 [Example 6, (8S)-N-({3-[(Dimethylamino)methyl]imidazo[1,2-a]pyridin-2-yl}methyl)-N-methyl-5,6,7,8-tetrahydro-8-quinolinamine] | < 0.1 | –
CN(CCC#N)Cc1c(CN(C)[C@H]2CCCc3cccnc32)nc2ccccn12 [Example 27, 3-(Methyl{[2-({methyl[(8S)-5,6,7,8-tetrahydro-8-quinolinyl]amino}methyl)imidazo[1,2-a]pyridin-3-yl]methyl}amino)propanenitrile] | < 0.1 | –
CN(Cc1nc2ccccn2c1C(=O)N1CC(N)C1)C1CCCc2cccnc21 (centres unmarked) [Example 34, N-({3-[(3-amino-1-azetidinyl)carbonyl]imidazo[1,2-a]pyridin-2-yl}methyl)-N-methyl-5,6,7,8-tetrahydro-8-quinolinamine] | 0.5 to 10 | –
CN(Cc1nc2ccccn2c1C(=O)NCCN1CCCC1)C1CCCc2cccnc21 (centres unmarked) [Example 35, 2-{[methyl(5,6,7,8-tetrahydro-8-quinolinyl)amino]methyl}-N-[2-(1-pyrrolidinyl)ethyl]imidazo[1,2-a]pyridine-3-carboxamide] | 0.5 to 10 | –
CN1CCC(N(C)Cc2c(CN(C)[C@H]3CCCc4cccnc43)nc3ccccn23)CC1 [Example 24, (8S)-N-Methyl-N-[(3-{[methyl(1-methyl-4-piperidinyl)amino]methyl}imidazo[1,2-a]pyridin-2-yl)methyl]-5,6,7,8-tetrahydro-8-quinolinamine] | < 0.1 | –
CN(Cc1nc2ccccn2c1-c1ccc(N2CCCC2)nc1)[C@H]1CCCc2cccnc21 [Example 15, (8S)-N-Methyl-N-({3-[6-(1-pyrrolidinyl)-3-pyridinyl]imidazo[1,2-a]pyridin-2-yl}methyl)-5,6,7,8-tetrahydro-8-quinolinamine] | 0.1 to 0.5 | –
N,N,N′-Trimethyl-N′-{[2-({methyl[(8S)-5,6,7,8-tetrahydro-8-quinolinyl]amino}methyl)imidazo[1,2-a]pyridin-3-yl]methyl}-1,2-ethanediamine [Example 17] | – | < 0.1
CN(C)CCN(C)c1ccc(-c2c(CN(C)[C@H]3CCCc4cccnc43)nc3ccccn23)cn1 [Example 16, N,N,N′-trimethyl-N′-trimethyl-N′-{5-[2-({methyl[(8S)-5,6,7,8-tetrahydro-8-quinolinyl]amino}methyl)imidazo[1,2-a]pyridin-3-yl]-2-pyridinyl}-1,2-ethanediamine] | 0.5 to 10 | –
CN(C)CC(=O)NCc1c(CN(C)[C@H]2CCCc3cccnc32)nc2ccccn12 [Example 7, N^2,N^2-Dimethyl-N^1-{[2-({methyl[(8S)-5,6,7,8-tetrahydro-8-quinolinyl]amino}methyl)imidazo[1,2-a]pyridin-3-yl]methyl}glycinamide] | < 0.1 | –
CN(Cc1nc2ccccn2c1-c1ccnc(N2CCOCC2)c1)[C@H]1CCCc2cccnc21 [Example 29, (8S)-N-Methyl-N-({3-[2-(4-morpholinyl)-4-pyridinyl]imidazo[1,2-a]pyridin-2-yl}methyl)-5,6,7,8-tetrahydro-8-quinolinamine] | 0.1 to 0.5 | –
CCN(CC)Cc1c(CN(C)[C@H]2CCCc3cccnc32)nc2ccccn12 [Example 20, (8S)-N-({3-[(Diethylamino)methyl]imidazo[1,2-a]pyridin-2-yl}methyl)-N-methyl-5,6,7,8-tetrahydro-8-quinolinamine] | 0.1 to 0.5 | –
CN(C)CCCc1c(CN(C)[C@H]2CCCc3cccnc32)nc2ccccn12 [Example 3, (8S)-N-({3-[3-(Dimethylamino)propyl]imidazo[1,2-a]pyridin-2-yl}methyl)-N-methyl-5,6,7,8-tetrahydro-8-quinolinamine] | < 0.1 | –
